Measured values reported in patent US20150151008A1, “Contrast Media Taste Masking Formulations” (HOVIONE SCIENTIA LIMITED, priority 2013, published 2015).

Tests used:
[1] = Osmotic pressure (osmolality) in an osmometer; format: physicochemical
Description: The osmotic pressure analysis measures the driving force of a solution to displace water molecules through a membrane from the medium in one side to the other. Considering the membrane is the esophageal epithelium, high osmolality means loss of water from the surrounding tissues to the GI tract. […] […] The osmolality of the powders produced through micro-encapsulation using spray congealing and spray drying were measured and compared to those of the pure contrast agents.

[2] = Particle size and morphology by PLM / SEM imaging; format: physicochemical; settings: raw, non-encapsulated iopamidol particles

| mOsmol at 15 mg l/mL [1] | mOsmol at 300 mg l/mL [1] | Diameter of iopamidol particles [2] | SMILES |
| --- | --- | --- | --- |
| 36 mOsmol | 413 mOsmol |  | CC(=O)N(CC(O)CO)c1c(I)c(C(=O)NCC(O)CO)c(I)c(C(=O)NCC(O)CO)c1I (centres unmarked) [Iohexol (raw), 1-N,3-N-bis(2,3-dihydroxypropyl)-5-[N-(2,3-dihydroxypropyl)acetamido]-2,4,6-triiodobenzene-1,3-dicarboxamide] |
| 30 mOsmol | 572 mOsmol | approximately 3 μm | C[C@H](O)C(=O)Nc1c(I)c(C(=O)NC(CO)CO)c(I)c(C(=O)NC(CO)CO)c1I [Iopamidol (raw), 1-N,3-N-bis(1,3-dihydroxypropan-2-yl)-5-[(2S)-2-hydroxypropanamido]-2,4,6-triiodobenzene-1,3-dicarboxamide] |
